# Experimental data as given in patent publication EP1191024A1, “Thiadiazines and their use as inhibitors of metalloproteinases” (Tschesche, Harald, priority 2000, dated 2002).
# Where a name gives a salt, the structure may show the parent alone.
# Target: cdMMP-2 (Homo sapiens, UniProt P08253)
# Test: MMP microfluorometric profiling assay (fluorogenic Mca-peptide substrate)
# Type: biochemical
# Settings: not given
# Description: The tested MMP enzymes were prepared more specifically in the laboratories of the applicants, with the exception of MMP-1. MMP-1 from human rheumatoid synovial fibroblasts was purchased from Calbiochem-Novabiochem Corporation, LaJolla. Preparation of the recombinant catalytic domain of human Gelatinase A (cdMMP-2): The catalytic domain of Pro-Gelatinase A was prepared using an E. coli expression system according to the method described by Kröger et al^[19]. The proenzyme was activated with 0.5 mM APMA at 37°C prior to use in the assay. […] Preparation of PMNL-Gelatinase (MMP-9): Latent PMNL-pro-Gelatinase was prepared from human plasma buffy coat as described by Tschesche et al^[21]. PMNL-pro-Gelatinase was activated prior to use by incubation with Trypsin at 37°C for 10 min. Inactivation of Trypsin was accomplished with TKI. […] The overexpressed protein was isolated as inclusion bodies and the renatured protein was purified by affinity chromatography with a hydroxamate inhibitor coupled column as described^[22]. Preparation of the recombinant catalytic domain of human Collagenase-3 (cdMMP-13): Human pro-cdMMP-13 was prepared using an E. coli expression system according to the method described^[23]. The isolated pro-cdMMP-13 was activated prior to use by incubation with 5 mM HgCl2 for 2 h at 37°C.
# The enzymatic activity was measured using a modified version of a resonance energy transfer fluorogenic assay as described^[26]. Progress curves were monitored by following the increase in fluorescence at 393 nm (λex = 328 nm), induced by the cleavage of the (7-methoxycoumarin-4-yl)acetyl-Pro-Leu-Gly-Leu-(3-[2,4-dinitro-phenyl]-L-2,3-diamino-propionyl)-Ala-Arg-NH2 (Mca-Pro-Leu-Gly-Leu-Dpa-Ala-Arg-NH2) fluorogenic substrate by MMPs. The fluorescent MCA-group is quenched by resonance energy transfer to the 2,4-dinitrophenyl group. Matrix metalloproteinases cleave this substrate at the Gly-Leu bond. Cleavage results in the loss of energy transfer and a large increase in fluorescence of the MCA group. This substrate is commercially available from Bachem, Switzerland.
# Enzyme inhibition assays were carried out in MRB which consisted of 50 mM HEPES/NaOH, pH 7.0, 10 mM CaCl2 and 0,02% (w/v) PEG 8000 at 25°C. MMP microfluorometric profiling assay was done in white U-bottomed 96-well plates (Microfluor 1 White, Dynex, USA) with a final substrate concentration of 6 µM MCA-peptide, approximately 0.3 to 5 nM MMP with variable inhibitor concentrations and 2% DMSO vehicle. From a 1.5 mM stock (100% DMSO) the inhibitors were serially diluted with MRB to 15, 10, 5, 3, 1, 0.6, 0.3, 0.1, 0.05, 0.01 and 0.005 µM final assay concentration. Column 1, rows A through H, contained only DMSO for the "enzyme-only" wells in the assay. After preincubation for 30 min at 25°C the reaction was started by addition of substrate and the plate was read on a SpectraFluor Plus (Tecan, Germany) plate reader with excitation at 330 nm and emission at 405 nm with the gain set to 150. Each measurement was done in triplicate to ensure statistically significant results. The experiment was further controlled for background fluorescence of the substrate, for fluorescence of fully cleaved substrate and for fluorescence quenching or augmentation from solutions containing the test compounds.
# Datapoints from eight different MMPs generated on the SpectraFluor Plus were directly visualized on a master Excel spreadsheet. The response of inhibition was determinated for each inhibitor concentration by comparing the amount of hydrolysis (fluorescence units generated over 30 minutes of hydrolysis) of wells containing compound with the "enzyme-only" wells in column 1. With the program GraFit (Erithacus Software Limited) a 4 parameter logistic fit to the dose-response data was used to calculate IC50 values for each compound.
# cdMMP-2, sequence (P08253 110-446): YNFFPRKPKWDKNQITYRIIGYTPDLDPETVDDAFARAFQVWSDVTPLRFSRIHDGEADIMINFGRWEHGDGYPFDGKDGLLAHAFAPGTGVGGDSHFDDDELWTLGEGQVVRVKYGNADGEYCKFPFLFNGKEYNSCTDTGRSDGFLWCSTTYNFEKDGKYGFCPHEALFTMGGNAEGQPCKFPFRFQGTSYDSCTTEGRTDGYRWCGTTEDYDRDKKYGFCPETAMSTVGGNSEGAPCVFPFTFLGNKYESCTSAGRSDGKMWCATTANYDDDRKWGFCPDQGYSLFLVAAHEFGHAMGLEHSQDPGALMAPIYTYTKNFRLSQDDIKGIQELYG
row,SMILES,IC50
1,"C=CCNC1=NN=C(c2ccc(Cl)cc2)CS1 [Example 31, N-Allyl-5-(4-chlorophenyl)-6H-1,3,4-thiadiazin-2-amine hydrobromide]",3310 nM
2,"C[C@H](NS(=O)(=O)N1CCOCC1)C(=O)NC1=NN=C(c2ccc(Cl)cc2)CS1 [Example 28, (2S)-N-[5-(4-Chlorophenyl)-6H-1,3,4-thiadiazin-2yl-]-2-[(4-morpholinylsulfonyl)amino]propanamide]",662 nM

# Same assay, conditions: cdMMP-2, @ 15 (µM)
row,percent inhibition,SMILES
1,53%^a)@ 15,"O=C(CC1NC(=O)NC1=O)NC1=NN=C(c2ccc(C3CCCCC3)cc2)CS1 (stereo not drawn) [Example 25, N-[5-(4-Cyclohexylphenyl)-6H-1,3,4-thiadiazin-2-yl]-2-(2,5-dioxo-4-imidazolidinyl)acetamide]"
2,67%^a)@ 15,"O=C(CC1NC(=O)NC1=O)NC1=NN=C(c2ccc(Cl)cc2)CS1 (stereo not drawn) [Example 23, N-[5-(4-Chlorophenyl)-6H-1,3,4-thiadiazin-2-yl]-2-(2,5-dioxo-4-imidazolidinyl)-acetamide]"

row,SMILES,percent inhibition
1,"C[C@H](NS(=O)(=O)c1ccccc1)C(=O)NC1=NN=C(c2ccc(C(F)(F)F)cc2)CS1 [Example 4, (2S)-2-[(Phenylsulfonyl)amino]-N-{5-[4-(trifluormethyl)phenyl]-6H-1,3,4-thiadiazin-2-yl}propanamide]",25%^a)@ 15

# Same assay, conditions: read-out: cdMMP-2 IC50
row,IC50,SMILES
1,495 nM,"C[C@H](NS(=O)(=O)c1ccccc1)C(=O)NC1=NN=C(c2ccc([N+](=O)[O-])cc2)CS1 [Example 9, (2S)-N-[5-(4-Nitrophenyl)-6H-1,3,4-thiadiazin-2-yl]-2-[(phenylsulfonyl)amino]-propanamide]"
2,354 nM,"C[C@H](NS(=O)(=O)c1cccnc1)C(=O)NC1=NN=C(c2ccc(Cl)cc2)CS1 [Example 29, (2S)-N-[5-(4-Chlorophenyl)-6H-1,3,4-thiadiazin-2-yl]-2-[(3-pyridylsulfonyl)-amino]propanamide]"
3,693 nM,"O=C1C[C@@H](C(=O)NC2=NN=C(c3ccc(Cl)cc3)CS2)NC(=O)N1 [Example 30, (4S)-N-[5-(4-Chlorophenyl)-6H-1,3,4-thiadiazin-2-yl]-2,6-dioxohexahydro-4-pyrimidinecarboxamide]"
4,675 nM,"COc1ccc(S(=O)(=O)N[C@@H](C)C(=O)NC2=NN=C(c3ccc(C)cc3)CS2)cc1 [Example 17, (2S)-2-{[(4-Methoxyphenyl)sulfonyl]amino}-N-[5-(4-methylphenyl)-6H-1,3,4-thiadiazin-2-yl]propanamide]"
5,572 nM,"C[C@@H](NS(=O)(=O)c1ccccc1)C(=O)NC1=NN=C(c2ccc(F)cc2)CS1 [Example 14, (2R)-N-[5-(4-Fluorophenyl)-6H-1,3,4-thiadiazin-2-yl]-2-[(phenylsulfonyl)amino]-propanamide]"
6,864 nM,"O=C(CC1NC(=O)NC1=O)NC1=NN=C(c2ccc(Br)cc2)CS1 (stereo not drawn) [Example 24, N-[5-(4-Bromophenyl)-6H-1,3,4-thiadiazin-2-yl]-2-(2,5-dioxo-4-imidazolidinyl)-acetamide]"
7,1460 nM,"CC(C)[C@H](NS(=O)(=O)c1ccccc1)C(=O)NC1=NN=C(c2ccc(Cl)cc2)CS1 [Example 22, (2S)-N-[5-(4-Chlorophenyl)-6H-1,3,4-thiadiazin-2-yl]-3-methyl-2-[(phenylsulfonyl)amino]butanamide]"
8,3100 nM,"C[C@H](NS(=O)(=O)c1ccccc1)C(=O)NC1=NN=C(c2ccc(Cl)s2)CS1 [Example 10, (2S)-N-[5-(5-Chloro-2-thienyl)-6H-1,3,4-thiadiazin-2-yl]-2-[(phenylsulfonyl)-amino]propanamide]"
9,390 nM,"C[C@H](NS(=O)(=O)c1ccccc1)C(=O)NC1=NN=C(c2ccc(C#N)cc2)CS1 [Example 3, (2S)-N-[5-(4-Cyanophenyl)-6H-1,3,4-thiadiazin-2-yl]-2-[(phenylsulfonyl)amino]-propanamide]"
10,890 nM,"O=C(CC1NC(=O)NC1=O)NC1=NN=C(c2ccc(N3CCCC3)cc2)CS1 (stereo not drawn) [Example 26, 2-(2,5-Dioxo-4-imidazolidinyl)-N-{5-[4-(1-pyrrolidinyl)phenyl]-6H-1,3,4-thiadiazin-2-yl}acetamide]"
11,2430 nM,"CC(C)(C)c1ccc(S(=O)(=O)NCC(=O)NC2=NN=C(c3ccc(Cl)cc3Cl)CS2)cc1 [Example 18, 2-{[(4-tert-Butylphenyl)sulfonyl]amino}-N-[5-(2,4-dichlorophenyl)-6H-1,3,4-thiadiazin-2-yl]acetamide]"
12,1410 nM,"CC(C)[C@@H](NS(=O)(=O)c1ccccc1)C(=O)NC1=NN=C(c2ccc(Cl)cc2)CS1 [Example 2, (2R)-N-[5-(4-Chlorophenyl)-6H-1,3,4-thiadiazin-2-yl]-3-methyl-2-[(phenylsulfonyl)amino]butanamide]"
13,353 nM,"C[C@@H](NS(=O)(=O)c1ccccc1)C(=O)NC1=NN=C(c2ccc(C#N)cc2)CS1 [Example 1, (2R)-N-[5-(4-Cyanophenyl)-6H-1,3,4-thiadiazine-2-yl]-2-[(phenylsulfonyl)amino]-propanamide]"
14,455 nM,"C[C@H](NS(=O)(=O)c1ccccc1)C(=O)NC1=NN=C(c2ccc(Br)cc2)CS1 [Example 6, (2S)-N-[5-(4-Bromophenyl)-6H-1,3,4-thiadiazin-2-yl]-2-[(phenylsulfonyl)amino]-propanamide]"
15,3930 nM,"COc1ccc(S(=O)(=O)NCC(=O)NC2=NN=C(c3c(F)c(F)c(F)c(F)c3F)CS2)cc1 [Example 16, 2-{[(4-Methoxyphenyl)sulfonyl]amino}-N-[5-(2,3,4,5,6-pentafluorophenyl)-6H-1,3,4-thiadiazin-2-yl]acetamide]"
16,1520 nM,"COc1ccc(S(=O)(=O)NCC(=O)NC2=NN=C(c3ccc(Cl)cc3Cl)CS2)cc1 [Example 19, N-[5-(2,4-Dichlorophenyl)-6H-1,3,4-thiadiazin-2-yl]-2-{[(4-methoxyphenyl)-sulfonyl]amino}acetamide]"
